Data on twelve molecules can be found in ChEMBL document CHEMBL1201862, “PubChem BioAssay data set” (2004).

SMILES strings stand for the structures.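 Tested at 5 concentrations; 48 h exposure; 96-well plates; endpoints linearly interpolated, else capped at highest concentration. GI50: concentration for 50% inhibition of growth.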 Calls of active or inactive are those of the source. No stated cut-off is given here; in the data, active = GI50 up to about 1.1 µM and inactive = higher. Where only a bound is given, the exact number is not on record here.

Test systems include TK-10; CAKI-1; U-251; IGROV-1; PC-3; M14; ACHN; MCF7; MDA-N; SF-539; HCT-116; UO-31; EKVX; MDA-MB-231; HCT-15; 786-0; NCI/ADR-RES; KM12; Malme-3M; Hs-578T.
Common to all, as to assay: NCI tumour cell line growth inhibition, 48 h

For the molecule `CCOc1cc(NC(C)=O)ccc1C(=O)NN1C(=O)C(Oc2ccccc2)C1c1ccc(O)c(OC)c1` (stereo not given), the GI50 with TK-10 is 40.8 µM (inactive); in the experiment with CAKI-1 it was 54.8 µM (inactive); with U-251, 48.9 µM (inactive); with IGROV-1, 34 µM (inactive); in the experiment on PC-3, 35.2 µM (inactive); with M14, 52.1 µM (inactive). For the same molecule, the GI50 is 93.5 µM (inactive) in the experiment on ACHN; 39.5 µM (inactive) with MCF7; 33.6 µM (inactive) in the experiment on MDA-N; 28.1 µM (inactive) with SF-539; 52.4 µM (inactive) in the experiment with HCT-116; 35 µM (inactive) with UO-31. Further, the GI50 was 35.3 µM (inactive) in the experiment with EKVX; 34 µM (inactive) with MDA-MB-231; 32.8 µM in the experiment with HCT-15; 43.8 µM (inactive) in the experiment on 786-0; 37.4 µM (inactive) in the experiment on NCI/ADR-RES; 39.1 µM (inactive) in the experiment with KM12.
For the molecule `COc1ccc(NC(=O)CC/C(CC(=O)C(C)(C)C)=N\NC(=O)C(=O)NN)cc1`, the GI50 with TK-10, in the experiment on CAKI-1, in the experiment with U-251, in the experiment with IGROV-1, with M14 and with ACHN was > 100 µM (inactive) each time. The GI50 in the experiment on Malme-3M was > 100 µM (inactive); in the experiment with SF-539, > 100 µM (inactive); in the experiment with HCT-116, > 100 µM (inactive); in the experiment on UO-31, > 100 µM (inactive); in the experiment on EKVX it was > 100 µM (inactive); in the experiment on HCT-15, above 100 µM. Further, the GI50 in the experiment on 786-0 and in the experiment on KM12 was > 100 µM (inactive) each time.
On to `c1csc(-c2cscc2-c2cccs2)c1`, for which the GI50 with TK-10 is 91 µM (inactive); with CAKI-1 it was > 100 µM (inactive); in the experiment on U-251, > 100 µM (inactive); in the experiment with IGROV-1, 67.8 µM (inactive); with PC-3, 5.38 µM (inactive); with M14, 27.7 µM (inactive). Moreover, the GI50 in the experiment on ACHN was > 100 µM (inactive); in the experiment with Hs-578T, 54.8 µM (inactive); in the experiment with MCF7, 20.2 µM (inactive); in the experiment with SF-539, 20.3 µM (inactive); with HCT-116, 29.8 µM (inactive); in the experiment on UO-31, 58.2 µM (inactive). In addition, the GI50 in the experiment on EKVX was 58.3 µM (inactive); in the experiment on MDA-MB-231, > 100 µM (inactive); in the experiment with HCT-15, 35.8 µM; in the experiment with 786-0, 43.6 µM (inactive); in the experiment with NCI/ADR-RES, 42.9 µM (inactive); in the experiment with KM12, 22.3 µM (inactive).
Consider `C[N+](C)(C)CC(=O)N/N=C(\C(=O)Nc1ccc(Cl)cc1)C1C(=O)N(c2ccccc2)N=C1N` (stereo not given), for which the GI50 with TK-10, in the experiment with CAKI-1, in the experiment on U-251, with IGROV-1, with M14 and in the experiment on ACHN was > 100 µM (inactive) each time. Besides, the GI50 is > 100 µM (inactive) in the experiment with Malme-3M; > 100 µM (inactive) in the experiment on SF-539; > 100 µM (inactive) in the experiment with HCT-116; > 100 µM (inactive) in the experiment on UO-31; > 100 µM (inactive) in the experiment on EKVX; above 100 µM with HCT-15. The GI50 in the experiment with 786-0 and with KM12 was > 100 µM (inactive) each time.
As to `CC(=O)OC1=C(CC(C)(C)C)C(=O)c2ccccc2C1=O`, the GI50 in the experiment with TK-10 was 68.9 µM (inactive); with CAKI-1, 48.4 µM (inactive); in the experiment with U-251, 44.8 µM (inactive); with IGROV-1, 34.2 µM (inactive); in the experiment with PC-3, 29.1 µM (inactive); with M14, 30.4 µM (inactive). Further, the GI50 in the experiment on ACHN is 35.6 µM (inactive); in the experiment on Hs-578T, 14.5 µM (inactive); in the experiment on MCF7, 39.5 µM (inactive); in the experiment on SF-539 it was 26.5 µM (inactive); in the experiment on HCT-116, 25.8 µM (inactive); in the experiment with UO-31, 33.4 µM (inactive). In addition, the GI50 is 37 µM (inactive) in the experiment on EKVX; 87.7 µM (inactive) in the experiment with MDA-MB-231; 31.8 µM in the experiment on HCT-15; 39.6 µM (inactive) with 786-0; 18.1 µM (inactive) with NCI/ADR-RES; 32.2 µM (inactive) in the experiment with KM12.
Turning to `[O-][n+]1c2ccccc2[n+]([O-])c2ccccc21`, the GI50 was > 100 µM (inactive) in the experiment with TK-10; > 100 µM (inactive) with CAKI-1; > 100 µM (inactive) in the experiment on U-251; 46.5 µM (inactive) in the experiment on IGROV-1; > 100 µM (inactive) in the experiment on PC-3; 33.1 µM (inactive) in the experiment on M14. The GI50 in the experiment with ACHN is 61 µM (inactive); with Hs-578T, > 100 µM (inactive); in the experiment with Malme-3M it was > 100 µM (inactive); in the experiment with MCF7 it was 48.1 µM (inactive); with SF-539, > 100 µM (inactive); in the experiment with HCT-116, > 100 µM (inactive). Besides, the GI50 with UO-31 is > 100 µM (inactive); in the experiment on EKVX it was > 100 µM (inactive); in the experiment with MDA-MB-231, 44.5 µM (inactive); in the experiment on HCT-15, 68.2 µM; in the experiment with 786-0, > 100 µM (inactive); in the experiment on NCI/ADR-RES it was > 100 µM (inactive).
Regarding `CCOC(=O)C1C(c2ccc3c(c2)OCO3)c2c(n[nH]c2O)CC1(O)OCC` (stereo not given), the GI50 in the experiment with TK-10, in the experiment with CAKI-1, in the experiment on U-251, in the experiment on IGROV-1, with PC-3 and in the experiment with M14 was > 100 µM (inactive) in each case. Besides, the GI50 in the experiment on ACHN, with Hs-578T, with Malme-3M, in the experiment with MCF7, in the experiment with SF-539 and in the experiment on HCT-116 was > 100 µM (inactive) in each case. Further, the GI50 was > 100 µM (inactive) with UO-31; > 100 µM (inactive) in the experiment with EKVX; > 100 µM (inactive) with MDA-MB-231; above 100 µM in the experiment on HCT-15; > 100 µM (inactive) in the experiment with 786-0; > 100 µM (inactive) in the experiment on NCI/ADR-RES. In addition, the GI50 in the experiment on KM12 was > 100 µM (inactive).
Regarding `O[C@H]1[C@H](O)[C@H](O)CN2CCC[C@@H](O)[C@H]12`, the GI50 in the experiment on TK-10, in the experiment on CAKI-1, in the experiment on U-251, with IGROV-1, in the experiment with PC-3 and in the experiment with M14 was > 100 µM (inactive) each time. For the same molecule, the GI50 in the experiment with ACHN, in the experiment on Hs-578T, in the experiment on MCF7, in the experiment with SF-539, in the experiment on HCT-116 and with UO-31 was > 100 µM (inactive) throughout. The GI50 was > 100 µM (inactive) in the experiment with EKVX; > 100 µM (inactive) in the experiment on MDA-MB-231; above 100 µM with HCT-15; > 100 µM (inactive) in the experiment on 786-0; > 100 µM (inactive) with NCI/ADR-RES; > 100 µM (inactive) in the experiment with KM12.
For the molecule `O=C(Nc1cc(Cl)cc(Cl)c1)/C(Cc1nc2ccccc2nc1O)=N/NC(=O)c1ccncc1`, the GI50 with TK-10, in the experiment on CAKI-1, in the experiment with U-251, in the experiment on IGROV-1, in the experiment with M14 and with ACHN was > 100 µM (inactive) throughout. For the same molecule, the GI50 is > 100 µM (inactive) in the experiment on Malme-3M; > 100 µM (inactive) in the experiment on SF-539; > 100 µM (inactive) in the experiment on HCT-116; > 100 µM (inactive) in the experiment with UO-31; > 100 µM (inactive) in the experiment with EKVX; above 100 µM in the experiment with HCT-15. In addition, the GI50 in the experiment with 786-0 and in the experiment on KM12 was > 100 µM (inactive) throughout.
Regarding `O=C(/C=C/c1ccc(Cl)cc1)c1ccc(Cl)c(Cl)c1`, the GI50 was > 10 µM (inactive) in the experiment with TK-10; 18.1 µM (inactive) in the experiment on CAKI-1; 11.2 µM (inactive) in the experiment with U-251; 22.3 µM (inactive) with IGROV-1; 28 µM (inactive) in the experiment on M14; 29 µM (inactive) with ACHN. Besides, the GI50 was 25.1 µM (inactive) in the experiment with Malme-3M; 20 µM (inactive) in the experiment with SF-539; 4.99 µM (inactive) in the experiment on HCT-116; 28.5 µM (inactive) with UO-31; 26.4 µM (inactive) in the experiment with EKVX; 26 µM with HCT-15. The GI50 in the experiment on 786-0 was 25.5 µM (inactive); in the experiment with KM12, 9.31 µM (inactive).
For `CC1(C)OCC2(CO1)CSCCCSCC1(COC(C)(C)OC1)CSCCCSC2`, the GI50 with TK-10 was > 100 µM (inactive); with U-251 it was > 100 µM (inactive); in the experiment with IGROV-1, > 100 µM (inactive); in the experiment with PC-3, > 100 µM (inactive); in the experiment on M14, > 100 µM (inactive); in the experiment on MCF7 it was > 10 µM (inactive). Also, the GI50 in the experiment with MDA-N, in the experiment with SF-539, with HCT-116, in the experiment on UO-31, with EKVX and with MDA-MB-231 was > 100 µM (inactive) in each case. In addition, the GI50 with HCT-15 is above 100 µM; with 786-0 it was > 100 µM (inactive); with NCI/ADR-RES it was > 100 µM (inactive); in the experiment with KM12 it was > 100 µM (inactive).
As to `CCCCCCCC(=O)OCC1OC(n2cc(F)c(=O)[nH]c2=O)C(NC(=O)OCc2ccccc2)C(O)C1O` (stereo not given), the GI50 in the experiment with TK-10 is > 100 µM (inactive); with CAKI-1, > 100 µM (inactive); with U-251 it was 80.2 µM (inactive); in the experiment with IGROV-1, > 100 µM (inactive); with M14, > 100 µM (inactive); in the experiment with ACHN, > 100 µM (inactive). Besides, the GI50 in the experiment on Malme-3M is > 100 µM (inactive); in the experiment on SF-539, 83.4 µM (inactive); in the experiment on HCT-116 it was > 100 µM (inactive); in the experiment with UO-31, > 100 µM (inactive); in the experiment on EKVX, > 100 µM (inactive); in the experiment with HCT-15, above 100 µM. Moreover, the GI50 in the experiment with 786-0 was > 100 µM (inactive); in the experiment on KM12, 32.4 µM (inactive).
